Assay results from patent US8952042B2, “FXR (NR1H4) binding and activity modulating compounds” (Phenex Pharmaceuticals AG, priority 2009, dated 2015).

How the values were obtained:
[1] = system: BSEP and SHP gene expression; experiment: FXR target gene induction in mouse liver (qRT-PCR), high fat diet mice; assay type: in vivo, C57/bI6 mice; conditions: HFD mice, estimated 30 mg/kg daily in food, normalized to TBP
Method: C57/bI6 mice (Elevage Janvier, France) at the age of 8 weeks were put on a high fat diet (60% kcal from fat, Sniff, Soest, Germany, Cat. No. E15771-30 (Mod. Surwit)+0.5 cholesterol (Sigma-Aldrich, Germany) added) for 4 weeks. Baseline blood samples were taken after overnight starvation and fasting plasma glucose was determined using a Roche Accucheck device. In parallel L1-heparin plasma was generated for the determination of baseline total triglyceride (TG) and total cholesterol (TC) levels. Animals were maintained on the HFD+0.5% cholesterol diet for 8 weeks and weekly blood samples were taken for the monitoring of plasma TG and TC levels using routine enzymatic analysis kits (WAKO Diagnostics, Neuss, Germany). The test compounds were dissolved in 100% palm fat and then mixed into molten food for an estimated daily uptake of 30 mg/kg based on averaged food consumption in the 4 weeks HFD adaptation period. FIGS. 4 and 5 show the development of TG and TC values.
RNA was isolated using RNAzol RT Reagent (Fermentas) and mRNA levels determined by quantitative reverse-transcription polymerase chain reaction (qRT-PCR) using Absolute QPCR Rox Mix (Invitrogen) and a real-time PCR machine from Applied Biosystems (CA). Primer and probe sequences (5′ to 3′) used were: SHP, Fwd […]; Rev […]; probe 56-FAM/[…] and BSEP, Fwd […]; Rev […]; probe 56-FAM/ATGGCT […]. All samples were run in duplicate. […]

[2] = UV stability, irradiation at 366 nm on a DMSO thin film, LCMS; assay type: physicochemical; conditions: 366 nm emission, 250 μM in DMSO thin film, FIG. 3m
Method: A different, more rapid experimental setup was used to investigate a broader set of compounds in comparison to GW4064. The substances were dissolved in reagent grade DMSO (99.5%, Karl Roth) at a concentration of 250 μM. DMSO solution was spread over a silica glass slide to a depth of approximately 2 mm and irradiated using a UV lamp set to 366 nm emission (Benda Instruments, Wiesloch Germany) using an 8 W tube set approximately 2.5 cm from the target materials. The solution was sampled prior to irradiation (T=0 min) and at various intervals thereafter. Stocks and samples were maintained in foil wrapped tubes out of direct light. Samples were injected (2 μL) directly onto a LCMS System for analysis without any further preparation.

[3] = UV photostability, irradiation at 254 nm, 1H NMR; assay type: physicochemical; conditions: 70 h UV irradiation at 254 nm
Method: The compounds of interest were dissolved using ethanol and their UV spectrum was analyzed to determine their λmax to establish an irradiation wavelength to be used in the study (see FIG. 2). The best wavelength for testing the UV stability of the —CH═CH— double bond was determined to be 254 nm. Further material of the compounds was then dissolved in deuterated ethanol and the ^1H NMRs (400 MHz) analyzed (T=0). Each sample was then recovered from the NMR tube and subjected to UV irradiation (254 nm) for 4 h, 15 h and 70 h. At the respective timepoints the individual samples were re-analyzed by ^1H NMR and the signal for the —CH═CH— protons evaluated to assess the percent of remaining intact double bond. Other changes in the chemical shift signals were also analyzed for further changes on the overall structure of the molecules.

Structure (SMILES)	gene expression of BSEP in liver [1] [fold]	gene expression of SHP in liver [1] [fold]	photostability compared to GW4064 [2]	behaviour in 1H NMR spectrum after prolonged UV irradiation [3]
O=C(O)c1ccc(C2CC2c2ccc(OCc3c(-c4c(Cl)cccc4Cl)noc3C3CC3)cc2Cl)cc1 (racemic) [Example 12, 4-(2-(2-chloro-4-((5-cyclopropyl-3-(2,6-dichlorophenyl)isoxazol-4-yl)methoxy)phenyl)cyclopropyl)benzoic acid]	6	6	higher photostability	–
O=C(O)c1cccc(C2CC2c2ccc(OCc3c(-c4c(Cl)cccc4Cl)noc3C3CC3)cc2Cl)c1 (racemic) [Example 4, 3-(2-(2-chloro-4-((5-cyclopropyl-3-(2,6-dichlorophenyl)isoxazol-4-yl)methoxy)phenyl)-cyclopropyl)benzoic acid]	–	–	–	inert
